# Columns and labels:
# CDK9/Cyclin T1 = molecular target: T1, CDK9/Cyclin T1 (Homo sapiens, UniProt P50750); test: LanthaScreen Eu Kinase Binding Assay, CDK9/Cyclin T1; conditions: tracer 236, read-out: CDK9/Cyclin T1 (activity range), Kd
# T1 construct: purchased Invitrogen
# Experimental: (§1) This protocol describes how the LanthaScreen Eu Kinase Binding Assay was performed to determine dissociation constants (Kd) of compounds of general formula (I) and CDK/Cyclin complexes. The principle behind this assay is based upon the binding and displacement of an Alexa Fluor 647-labeled tracer, which binds to the active site of kinases. Binding of the tracer to the kinase is detected using a Eu-labeled antibody. Simultaneous binding of both the tracer and antibody to the kinase gives rise to a FRET-signal. Binding of an inhibitor to the kinase competes for binding with the tracer, resulting in a loss of FRET.
# (§2) The compounds of general formula (I) summarized in Table 1 were diluted from a 10 mM DMSO stock solution 1:10 in a total volume of 15 μL DMSO. This compound predilution was then serial diluted 1:3 over 8 steps in DMSO and briefly spun down. Each compound solution was now diluted 1:33.33 in kinase buffer (HEPES: 20 mM, pH: 8.0; MgCl2: 10 mM; DTT: 1 mM; Brij-35: 0.01%), mixed thoroughly and spun down. For every sample, 5 μL of the diluted compound were mixed with 5 μL tracer working solution (e.g. 60 nM tracer 236 in kinase buffer for CDK2/Cyclin A) and 5 μL CDK/Cyclin/Anti-GST-AB-working solution (e.g. 15 nM CDK2/Cyclin A, 1:250 dilution of Anti-GST-AB in kinase buffer) in a well of a small volume 384 well plate (Corning Incorporated, Corning, N.Y., USA; order no. 3673). The tracer concentration was adjusted to its dissociation constant (Kd) for the CDK/Cyclin, which was 30 nM for CDK2/Cyclin A, CDK7/Cyclin H and CDK9/Cyclin T1, 20 nM for CDK8/Cyclin C, and 35 nM for CDK9/Cyclin K. For negative controls, in each well 5 μL of DMSO working solution (3% DMSO diluted in kinase buffer) was mixed with 5 μL Anti-GST-AB working solution (e.g. 1:250 dilution of Anti-GST-AB in kinase buffer for CDK2/Cyclin A) and 5 μL Tracer working solution (e.g. 60 nM Tracer 236 in kinase buffer for CDK2/Cyclin A). For positive controls, in each well 5 μL of DMSO working solution (3% DMSO diluted in kinase buffer) was mixed with 5 μL CDK/Cyclin/Anti-GST-AB-working solution: (e.g. 15 nM CDK2/Cyclin A, 1:250 dilution of Anti-GST-AB in kinase buffer) and 5 μL Tracer working solution (e.g. 60 nM Tracer 236 in kinase buffer for CDK2/Cyclin A). Positive and negative controls were calculated from at least 8 different sample wells. The 384 well plates were mixed in a Teleshaker plate mixer (Beckman Coulter, Brea, Calif., USA) at 2000 rpm for 40 sec, and incubated for 1 h at room temperature before reading. The FRET signal was measured at 340 nm excitation, 665 nm and 615 nm emission (for the kinase tracer and LanthaScreen Eu-AB, respectively) with an Envision spectrophotometer (Perkin Elmer, Waltham, Mass., USA) with 50 μs delay and 300 μs integration time. Kd values were determined from the sigmoidal dose response curves with the software Quattro Workflow (Quattro GmbH, Munich, Germany).
# CDK7/CyclinH/MAT1 [1] = molecular target: T2, CDK7/CyclinH/MAT1 (Homo sapiens, UniProt P50613); test: LanthaScreen Eu Kinase Binding Assay, CDK7; conditions: tracer 236, read-out: CDK7 (activity range), Kd
# T2 construct: purchased Carna Biosciences
# T2 sequence (P50613 whole entry): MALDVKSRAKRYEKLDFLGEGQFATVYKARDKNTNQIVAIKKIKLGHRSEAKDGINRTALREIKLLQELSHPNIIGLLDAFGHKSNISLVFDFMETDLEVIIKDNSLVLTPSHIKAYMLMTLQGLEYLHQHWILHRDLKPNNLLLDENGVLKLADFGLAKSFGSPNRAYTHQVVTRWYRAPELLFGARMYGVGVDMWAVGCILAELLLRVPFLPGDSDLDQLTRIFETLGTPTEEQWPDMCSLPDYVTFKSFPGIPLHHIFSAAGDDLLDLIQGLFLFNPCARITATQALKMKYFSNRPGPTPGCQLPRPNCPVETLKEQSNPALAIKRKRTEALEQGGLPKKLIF
# T2 sequence (P51946 whole entry partner): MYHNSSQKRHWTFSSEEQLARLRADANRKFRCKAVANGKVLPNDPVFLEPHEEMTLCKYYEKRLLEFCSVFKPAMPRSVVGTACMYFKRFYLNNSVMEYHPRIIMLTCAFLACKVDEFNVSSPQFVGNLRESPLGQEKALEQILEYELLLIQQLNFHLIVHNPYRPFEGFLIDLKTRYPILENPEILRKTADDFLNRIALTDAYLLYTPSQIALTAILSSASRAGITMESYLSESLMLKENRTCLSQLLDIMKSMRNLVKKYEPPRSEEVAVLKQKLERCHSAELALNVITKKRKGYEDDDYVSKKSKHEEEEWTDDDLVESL
# T2 sequence (P51948 whole entry partner): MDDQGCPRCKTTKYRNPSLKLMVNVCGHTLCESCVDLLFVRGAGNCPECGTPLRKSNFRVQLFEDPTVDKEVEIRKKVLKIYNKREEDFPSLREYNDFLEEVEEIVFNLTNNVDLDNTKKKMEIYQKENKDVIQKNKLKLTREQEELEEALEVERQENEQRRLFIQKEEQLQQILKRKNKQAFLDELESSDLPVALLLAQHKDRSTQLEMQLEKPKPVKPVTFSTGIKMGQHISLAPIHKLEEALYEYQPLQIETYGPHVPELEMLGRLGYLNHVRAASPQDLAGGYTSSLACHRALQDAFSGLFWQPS
# Experimental: as §1, §2
# CDK2/CyclinA [2] = molecular target: T3, CDK2/CyclinA (Homo sapiens, UniProt P24941); test: LanthaScreen Eu Kinase Binding Assay, CDK2; conditions: tracer 236, read-out: CDK2 (activity range), Kd
# T3 construct: purchased Proqinase
# Experimental: as §1, §2
# CDK9 = molecular target: T4, CDK9 (Homo sapiens, UniProt P50750); test: Lance Ultra KinaSelect Assay, CDK9; type: biochemical; conditions: ULight MBP substrate; cyclin partner not stated in Table 5; read-out: CDK9 LANCE assay (activity range), IC50
# T4 construct: purchased Invitrogen
# T4 sequence (P50750 whole entry): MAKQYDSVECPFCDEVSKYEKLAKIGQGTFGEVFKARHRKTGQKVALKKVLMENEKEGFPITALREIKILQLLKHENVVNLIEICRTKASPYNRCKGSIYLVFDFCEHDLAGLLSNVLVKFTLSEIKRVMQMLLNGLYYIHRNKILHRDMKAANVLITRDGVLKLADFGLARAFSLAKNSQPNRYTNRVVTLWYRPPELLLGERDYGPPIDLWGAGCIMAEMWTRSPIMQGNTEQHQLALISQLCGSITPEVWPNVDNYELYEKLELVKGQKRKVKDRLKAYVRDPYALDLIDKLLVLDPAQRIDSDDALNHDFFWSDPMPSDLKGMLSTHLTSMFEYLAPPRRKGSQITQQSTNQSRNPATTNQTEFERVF
# Experimental: (§3) This protocol describes how the Lance Ultra KinaSelect Assay was performed to determine half maximal inhibitory concentration (IC50) of compounds of general formula (I) and CDK/Cyclin complexes. The principle behind this enzymatic assay is based upon the phosphorylation of the ULight-Peptide Substrat. It is detected by using a specific EU-labeled anti-phospho peptide antibody. The binding of the Eu-labeled anti-phospho peptide antibody to the phosphorylated ULight labeled peptide gives rise to a FRET-signal. Binding of an inhibitor to the kinase prevents phosphorylation of the ULight-MBP Substrat, resulting in a loss of FRET.
# (§4) The compounds of general formula (I) summarized in Table 5 were diluted from a 10 mM DMSO stock solution 1:10 in a total volume of 15 μL DMSO. This compound predilution was then serial diluted 1:3 over 8 steps in DMSO and briefly spun down. Each compound solution was now diluted 1:20 in Enzymatic Buffer (HEPES: 50 mM, pH: 7.5; MgCl2: 10 mM; EGTA: 1 mM; DTT: 2 mM; Tween-20: 0.01%), mixed thoroughly and spun down. For every sample, 2 μL of the diluted compound were mixed with 6 μL CDK/Cyclin/Substrat solution and 2 μL ATP solution in a well of a small volume 384 well plate (Corning Incorporated, Corning, N.Y., USA; order no. 3673). The CDK/Cyclin was diluted to the appropriate concentration (see Table 3) and the ATP concentration was adjusted to its […] for the CDK/Cyclin, which was 3 μM for CDK2/Cyclin A, 20 μM for CDK1/Cyclin B1, 25 μM for CDK7/Cyclin H and CDK9/Cyclin T1, 55 μM for CDK6/Cyclin D3, 90 μM for CDK4/Cyclin D1 and 125 μM for CDK9/Cyclin K. For negative controls, in each well 2 μL of DMSO solution (1% final DMSO assay concentration) was mixed with 6 μL substrate solution (50 nM ULight MBP final assay concentration) and 2 μL ATP solution (appropriate final concentration see Table 3). For positive controls, in each well 2 μL of DMSO solution (1% final DMSO assay concentration) was mixed with 6 μL CDK/Cyclin/Substrat (appropriate final concentration see Table 3) and 2 μL Tracer ATP solution (appropriate final concentration see Table 3). Positive and negative controls were calculated from at least 8 different sample wells. The 384 well plates were mixed in a Teleshaker plate mixer (Beckman Coulter, Brea, Calif., USA) at 2000 rpm for 40 sec, and incubated for 1 h at room temperature. Before reading, 10 μL the detection buffer (Lance Detection Buffer 1×; EDTA: […]; Eu-Anti-P-MBP: see Table 3) was added. The FRET signal was measured at 340 nm excitation, 665 nm and 615 nm emission (for the kinase tracer and LanthaScreen Eu-AB, respectively) with an Envision spectrophotometer (Perkin Elmer, Waltham, Mass., USA) with 50 μs delay and 300 μs integration time. IC50 values were determined from the sigmoidal dose response curves with the software Quattro Workflow (Quattro GmbH, Munich, Germany).
# CDK2/CyclinA [3] = molecular target: T3, CDK2/CyclinA; test: Lance Ultra KinaSelect Assay, CDK2; type: biochemical; conditions: ULight MBP substrate, ATP 3 μM; read-out: CDK2 LANCE assay (activity range), IC50
# Experimental: as §3, §4
# CDK7/CyclinH/MAT1 [4] = molecular target: T2, CDK7/CyclinH/MAT1; test: Lance Ultra KinaSelect Assay, CDK7; type: biochemical; conditions: ULight MBP substrate, ATP 25 μM; read-out: CDK7 LANCE assay (activity range), IC50
# Experimental: as §3, §4
# T1 sequence (P50750 whole entry): as above
# T1 sequence (O60563 whole entry partner): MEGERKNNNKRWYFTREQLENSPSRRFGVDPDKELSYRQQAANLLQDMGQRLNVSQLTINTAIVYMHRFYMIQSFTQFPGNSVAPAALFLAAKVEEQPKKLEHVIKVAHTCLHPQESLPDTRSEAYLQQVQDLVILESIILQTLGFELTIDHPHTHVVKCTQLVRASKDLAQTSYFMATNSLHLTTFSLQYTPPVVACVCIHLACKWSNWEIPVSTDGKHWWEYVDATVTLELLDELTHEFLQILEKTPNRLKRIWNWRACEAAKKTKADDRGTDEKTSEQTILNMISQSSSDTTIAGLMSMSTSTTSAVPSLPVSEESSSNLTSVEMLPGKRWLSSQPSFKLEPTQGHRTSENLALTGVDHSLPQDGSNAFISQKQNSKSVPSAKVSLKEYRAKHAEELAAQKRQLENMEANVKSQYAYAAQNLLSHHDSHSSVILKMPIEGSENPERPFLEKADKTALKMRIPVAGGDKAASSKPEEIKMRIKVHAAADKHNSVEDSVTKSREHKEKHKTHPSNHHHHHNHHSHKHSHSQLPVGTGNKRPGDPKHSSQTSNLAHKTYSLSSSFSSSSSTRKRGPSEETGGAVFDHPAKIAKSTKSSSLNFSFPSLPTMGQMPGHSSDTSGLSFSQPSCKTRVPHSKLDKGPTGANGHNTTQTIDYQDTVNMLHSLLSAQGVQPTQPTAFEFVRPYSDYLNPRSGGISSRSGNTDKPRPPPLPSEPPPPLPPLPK
Kd (CDK9/Cyclin T1),Kd (CDK7/CyclinH/MAT1 [1]),Kd (CDK2/CyclinA [2]),IC50 (CDK9),IC50 (CDK2/CyclinA [3]),IC50 (CDK7/CyclinH/MAT1 [4]),SMILES
1000 to 10000 nM,> 10000 nM,–,–,–,–,"COc1cc(F)ccc1-c1ccnc(Nc2cccc(S(=O)(=O)NC(C)(C)C)c2)c1 [Compound D2, N-(tert-Butyl)-3-[(4-(4-fluoro-2-methoxyphenyl)pyridin-2-yl)amino]-benzenesulfonamide]"
< 100 nM,> 10000 nM,< 100 nM,< 100 nM,100 to 1000 nM,> 10000 nM,"COc1ccccc1-c1ccnc(Nc2cccc(CS(N)(=O)=O)c2)c1 [Compound G2, [3-((4-(2-Methoxyphenyl)pyridin-2-yl)amino)phenyl]-methanesulfonamide]"
< 100 nM,> 10000 nM,100 to 1000 nM,< 100 nM,1000 to 10000 nM,> 10000 nM,"COc1ccccc1-c1ccnc(Nc2cccc(CCS(N)(=O)=O)c2)c1 [Compound H1, 2-[3-((4-(2-Methoxyphenyl)pyridin-2-yl)amino)phenyl]-ethanesulfonamide]"

# Source: patent publication US9242937B2, “Pharmaceutically active disubstituted pyridine derivatives” (Bayer Intellectual Property GmbH, priority 2011, dated 2016)
